Reference: patent publication US6737383B1, “Herbicidal oxadiazolidines” (priority 1999, dated 2004)

How the values were obtained:
sugar beet = experiment: Test B pre/postemergence sugar beet; type: in vivo, Beta vulgaris; conditions: Postemergence
In short: (§1)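 Response is a visual 0-to-10 score relative to untreated plants, where 0 means no effect and 10 means complete control, taken twelve to sixteen days after application. Treatments went onto soil at planting and onto foliage of 1- to 4-leaf plants, using a surfactant-containing non-phytotoxic solvent.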

pigweed = experiment: Test B pre/postemergence pigweed; type: in vivo, Amaranthus retroflexus; conditions: for Redroot pigweed plant response rating: scale of 0 to 10 where 0 is no effect and 10 is complete control
In short: as §1

crabgrass = experiment: Test B pre/postemergence crabgrass; type: in vivo, Digitaria sanguinalis; conditions: for Crabgrass plant response rating: scale of 0 to 10 where 0 is no effect and 10 is complete control
In short: as §1

duck salad = experiment: Test B flood test duck salad; type: in vivo, Heteranthera limosa
In short: (§2)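 Read-out is a visual response score from 0 (no effect) to 10 (complete control), assigned by comparison with untreated controls. Treatment was applied at the 2-leaf stage, and plants stayed in the greenhouse for twelve to sixteen days before scoring.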

bamyardgrass = experiment: Test B flood test barnyardgrass; type: in vivo, Echinochloa crus-galli
In short: as §2

velvetleaf = experiment: Test B pre/postemergence velvetleaf; type: in vivo, Abutilon theophrasti; conditions: for Velvetleaf plant response rating: scale of 0 to 10 where 0 is no effect and 10 is complete control
In short: as §1

wild oat = experiment: Test B pre/postemergence wild oat; type: in vivo, Avena fatua; conditions: for Wild oats plant response rating: scale of 0 to 10 where 0 is no effect and 10 is complete control
In short: as §1

morningglory = experiment: Test B pre/postemergence morningglory; type: in vivo, Ipomoea hederacea; conditions: for Morningglory plant response rating: scale of 0 to 10 where 0 is no effect and 10 is complete control
In short: as §1

purple nutsedge = experiment: Test B pre/postemergence purple nutsedge; type: in vivo, Cyperus rotundus; conditions: for Nutsedge plant response rating: scale of 0 to 10 where 0 is no effect and 10 is complete control
In short: as §1

[1] = Postemergence, Rate 125 g/ha, scale 0 to 10, 0 is no effect, 10 is complete control
[2] = Preemergence, Rate 62 g/ha, scale 0 to 10 (0 no effect, 10 complete control)
[3] = Rate 500 g/ha, Postemergence, scale 0 to 10, 0 no effect, 10 complete control
[4] = Postemergence (flood test), Rate 125 g/ha, scale 0 to 10, 0 is no effect, 10 is complete control
[5] = Rate 62 g/ha, Postemergence (flood test species), scale of 0 to 10 where 0 is no effect and 10 is complete control
[6] = Rate 62 g/ha, flood test species, Pre-emergence, visual evaluation after twelve to sixteen days
[7] = Rate 125 g/ha, Pre-emergence, flood test species, scale 0 to 10 where 0 is no effect and 10 is complete control
[8] = Rate 250 g/ha, Pre-emergence, flood-test species, scale 0 to 10, 0 is no effect, 10 is complete control
[9] = Rate 500 g/ha, Pre-emergence, flood test species, scale 0 to 10 (0 no effect, 10 complete control)

## CCC(CC)n1c(=O)on(C(=O)N(c2ccc(F)cc2)C(C)C)c1=O [Compound 358]
Sugar beet; Rate 62 g/ha, scale of 0 to 10 where 0 is no effect and 10 is complete control
  Sugarbeets plant response rating: 0
Sugar beet; Rate 500 g/ha, scale 0 to 10, 0 no effect, 10 complete control
  Plant response rating, Sugarbeets: 4
pigweed; [1]
  Plant response rating, Redroot pigweed: 3
pigweed; [2]
  Plant response rating, Redroot pigweed: 7
pigweed; Preemergence, Rate 125 g/ha
  Redroot pigweed plant response rating (0 to 10 scale): 9
pigweed; Preemergence, Rate 250 g/ha
  Redroot pigweed plant response rating: 10
pigweed; Preemergence, Rate 500 g/ha
  Redroot pigweed plant response rating: 10
pigweed; Rate 62 g/ha, Postemergence
  Redroot pigweed plant response rating: 3
pigweed; [3]
  Plant response rating, Redroot pigweed: 6
crabgrass; [1]
  Plant response rating, Crabgrass: 0
crabgrass; [2]
  Plant response rating, Crabgrass: 9
crabgrass; Preemergence, Rate 125 g/ha
  Crabgrass plant response rating (0 to 10 scale): 10
crabgrass; Preemergence, Rate 250 g/ha
  Crabgrass plant response rating: 10
crabgrass; Preemergence, Rate 500 g/ha
  Crabgrass plant response rating: 10
crabgrass; Rate 62 g/ha, Postemergence
  Crabgrass plant response rating: 0
crabgrass; [3]
  Plant response rating, Crabgrass: 7
Duck salad; [4]
  Plant response rating, Ducksalad: 2
Duck salad; [5]
  Ducksalad plant response rating: 0
Duck salad; [6]
  Plant response rating, Ducksalad (0 to 10 scale, 0 is no effect, 10 is complete control): 0
Duck salad; [7]
  Ducksalad plant response rating: 0
Duck salad; [8]
  Ducksalad plant response rating: 0
Duck salad; [9]
  Ducksalad plant response rating: 2
bamyardgrass; [4]
  Plant response rating, Barnyardgrass: 2
bamyardgrass; [5]
  Barnyardgrass plant response rating: 2
bamyardgrass; [6]
  Plant response rating, Barnyardgrass (0 to 10 scale, 0 is no effect, 10 is complete control): 0
bamyardgrass; [7]
  Barnyardgrass plant response rating: 0
bamyardgrass; Rate 250 g/ha, Postemergence (flood test species), scale of 0 to 10 where 0 is no effect and 10 is complete control
  Plant response rating, Barnyardgrass: 9
bamyardgrass; [8]
  Barnyardgrass plant response rating: 9
bamyardgrass; [9]
  Barnyardgrass plant response rating: 9
velvetleaf; [1]
  Plant response rating, Velvetleaf: 2
velvetleaf; [2]
  Plant response rating, Velvetleaf: 3
velvetleaf; Preemergence, Rate 125 g/ha
  Velvetleaf plant response rating (0 to 10 scale): 4
velvetleaf; Preemergence, Rate 250 g/ha
  Velvetleaf plant response rating: 5
velvetleaf; Preemergence, Rate 500 g/ha
  Velvetleaf plant response rating: 8
velvetleaf; Rate 62 g/ha, Postemergence
  Velvetleaf plant response rating: 2
velvetleaf; [3]
  Plant response rating, Velvetleaf: 3
Wild oat; [1]
  Plant response rating, Wild oats: 3
Wild oat; [2]
  Plant response rating, Wild oats: 4
Wild oat; Preemergence, Rate 125 g/ha
  Wild oats plant response rating (0 to 10 scale): 5
Wild oat; Preemergence, Rate 250 g/ha
  Wild oats plant response rating: 9
Wild oat; Preemergence, Rate 500 g/ha
  Wild oats plant response rating: 10
Wild oat; Rate 62 g/ha, Postemergence
  Wild oats plant response rating: 0
Wild oat; [3]
  Plant response rating, Wild oats: 7
morningglory; [1]
  Plant response rating, Morningglory: 5
morningglory; [2]
  Plant response rating, Morningglory: 0
morningglory; Preemergence, Rate 125 g/ha
  Morningglory plant response rating (0 to 10 scale): 0
morningglory; Preemergence, Rate 250 g/ha
  Morningglory plant response rating: 3
morningglory; Preemergence, Rate 500 g/ha
  Morningglory plant response rating: 5
morningglory; Rate 62 g/ha, Postemergence
  Morningglory plant response rating: 3
morningglory; [3]
  Plant response rating, Morningglory: 7
Purple nutsedge; [1]
  Plant response rating, Nutsedge: 0
Purple nutsedge; [2]
  Plant response rating, Nutsedge: 0
Purple nutsedge; Preemergence, Rate 125 g/ha
  Nutsedge plant response rating (0 to 10 scale): 0
Purple nutsedge; Preemergence, Rate 250 g/ha
  Nutsedge plant response rating: 0
Purple nutsedge; Preemergence, Rate 500 g/ha
  Nutsedge plant response rating: 0
Purple nutsedge; Rate 62 g/ha, Postemergence
  Nutsedge plant response rating: 0
Purple nutsedge; [3]
  Plant response rating, Nutsedge: 0
